Results from article PMC8205030, “Methoxy and bromo scans on N-(5-methoxyphenyl) methoxybenzenesulphonamides reveal potent cytotoxic compounds, especially against the human breast adenocarcinoma MCF7 cell line” (Journal of Enzyme Inhibition and Medicinal Chemistry, 2021).
≈ marks a conversion by molar mass, not a printed value. Where two headings read alike, the source gives them in different places.

Columns and labels:
[1] = tested on: MCF7 (human breast carcinoma) cells; assay: Cell growth assay (XTT), MCF7; type: cell-based; details: Homo sapiens, MCF7; 72 h drug exposure, XTT; read-out: Antiproliferative activity IC50 MCF7
Procedure, shortened: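 Cells (1.5 × 10^4 cells/mL for MCF7, HeLa, HEK293; 3 × 10^4 cells/mL for HT-29) attached 24 h, then treated 72 h at 37 °C, 5% CO2. Screened at 1 µM; IC50 versus untreated controls from 10^−5 to 10^−10 M by nonlinear fit. XTT/PMS absorbance at 450 nm after 4 h (MCF7, HeLa) or 6 h (HT-29, HEK293); HT-29 with 10 µM verapamil.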

[2] = tested on: HEK293 (human embryonic kidney) cells; assay: Cell growth assay (XTT), non-tumorigenic HEK293; type: cell-based
Protocol: The presence of mycoplasma was routinely checked with MycoAlert kit (Lonza-Cambrex) and only mycoplasma-free cells were used in the experiments. Tumour cell lines were kindly provided by Dr Faustino Mollinedo from Centro de Investigaciones Biológicas Margarita Salas, Madrid, Spain. To determine cell growth, cells in exponential growth phase were seeded (100 µL/well in 96-well plates) with appropriate cell concentration (1.5 × 10^4 cells/mL for MCF7, HeLa and HEK-293 and 3 × 10^4 cells/mL for HT-29) in complete DMEM or RPMI 1640 medium (see above) at 37 °C and 5% CO2 atmosphere. After 24 h incubation, to allow cells to attach to the plates, all compounds were added at 1 µM concentration (10 µL/well in 96-well plates) and the effect on the proliferation was evaluated 72 h post-treatment. Compounds showing antiproliferative effects at tested concentration were selected for IC50 calculation (50% inhibitory concentration compared to the untreated controls) from 10^−5 to 10^−10 M concentration. Nonlinear curves fitting the experimental data were carried out for each compound. […] A freshly prepared mixture solution of XTT labelling reagent with 0.02% (v/v) PMS (N-methyl-dibenzopyrazine methyl sulfate) electron coupling reagent was added to cells (50 µL/well in 96-well plates, the total volume of 160 µL/well) and were incubated during the corresponding time according to each cell line (4 h for MCF7 and HeLa and 6 h for HT-29 and HEK-293) in a humidified atmosphere (37 °C, 5% CO2). The absorbance of the formazan product generated was measured at a test wavelength of 450 nm using a multi-well plate reader (Ultra Evolution, Tecan, Männedorf, Suiza). Compounds were dissolved in DMSO and the final solvent concentrations never exceeded 0.5% (v/v). The control wells included treated cells with 0.5% (v/v) DMSO and the positive control. 10 µM verapamil was included as a control for the HT-29 cell line. Measurements were performed in triplicate, and each experiment was repeated three times.

[3] = tested on: HT-29 (human colon carcinoma) cells; assay: Cell growth assay (XTT), HT-29, alone or with verapamil; type: cell-based
[4] = Aqueous solubility (saturation shake-flask, UV); type: physicochemical; details: aqueous buffer, thermodynamic from solid, pH 7.0 phosphate buffer, room temperature
Protocol: The aqueous solubility was determined in a Helios-α UV-320 Spectrophotometer Thermo-Spectronic, Thermo Fischer Scientific, Waltham, MA, USA) using an approach based on the saturation shake-flask method. 1–2 mg of each selected compound was suspended in 300 µL pH 7.0 buffer and stirred for 48 h at room temperature. The resulting mixture was filtered through a […] filter to discard the insoluble residues. A scan between 270 and 400 nm for the tested compound was performed and three wavelengths of maximum absorbance were selected. Calibration curves were performed at these wavelengths and the concentration in the supernatant was measured by UV absorbance. The final value was given as the average of the three measurements.

[5] = biological target: T1, microtubular protein isolated from calf brain (Bos taurus, UniProt P81947+Q6B856); assay: Inhibition of tubulin polymerisation (turbidity); type: biochemical
T1 construct: isolated from calf brain according to the modified Shelanski method; from tissue; host or cells: calf brain
T1 sequence (Q6B856 whole entry): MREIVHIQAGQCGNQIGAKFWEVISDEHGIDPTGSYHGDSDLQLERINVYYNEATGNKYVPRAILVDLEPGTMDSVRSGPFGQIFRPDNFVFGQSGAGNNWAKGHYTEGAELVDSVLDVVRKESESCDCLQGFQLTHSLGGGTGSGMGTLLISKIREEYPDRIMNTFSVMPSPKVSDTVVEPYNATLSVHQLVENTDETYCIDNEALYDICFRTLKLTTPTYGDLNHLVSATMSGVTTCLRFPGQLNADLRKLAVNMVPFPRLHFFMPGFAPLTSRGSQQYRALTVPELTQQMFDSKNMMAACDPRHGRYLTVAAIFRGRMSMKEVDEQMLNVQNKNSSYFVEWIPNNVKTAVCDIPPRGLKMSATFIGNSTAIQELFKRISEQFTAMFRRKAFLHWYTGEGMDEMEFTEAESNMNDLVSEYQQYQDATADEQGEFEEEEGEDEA
T1 sequence (P81947 whole entry): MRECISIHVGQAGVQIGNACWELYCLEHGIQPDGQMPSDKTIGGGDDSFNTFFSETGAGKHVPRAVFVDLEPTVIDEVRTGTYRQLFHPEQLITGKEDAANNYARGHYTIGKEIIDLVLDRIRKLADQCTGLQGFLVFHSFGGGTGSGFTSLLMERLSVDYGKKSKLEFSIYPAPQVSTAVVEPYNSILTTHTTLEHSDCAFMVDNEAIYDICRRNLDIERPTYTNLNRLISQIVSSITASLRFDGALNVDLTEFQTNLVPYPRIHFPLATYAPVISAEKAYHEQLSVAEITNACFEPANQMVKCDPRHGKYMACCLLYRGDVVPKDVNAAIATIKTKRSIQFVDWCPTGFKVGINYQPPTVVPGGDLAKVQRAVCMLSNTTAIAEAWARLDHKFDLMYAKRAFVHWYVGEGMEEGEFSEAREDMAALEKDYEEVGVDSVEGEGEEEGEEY

Which IC50 [1] does the source give for `COc1ccc(S(=O)(=O)N(CC#N)c2cc(OC)c(Br)cc2OC)cc1` [Compound 25, N-(4-bromo-2,5-dimethoxyphenyl)-N-(cyanomethyl)-4-methoxybenzenesulphonamide] here?
The IC50 was 86 nM.

And the “Selectivity index HEK293 vs HeLa and MCF7 tumour cells” value [2]?
Its value is 0.5 to 2 fold.

And the IC50 ([2]; Homo sapiens, HEK293, non-tumorigenic cell line, 72 h, XTT, read-out: Antiproliferative activity IC50 HEK293)?
The IC50 was 45 nM.

And the IC50 ([3]; 72 h, in the presence of Pgp/MDR1 inhibitor verapamil (10 µM), read-out: Antiproliferative activity IC50 HT-29 Verap)?
Its IC50 is 85 nM.

What about the IC50 ([3]; Homo sapiens, HT-29, 72 h drug exposure, XTT, read-out: Antiproliferative activity IC50 HT-29) of the same molecule?
Its IC50 is 97 nM.

What about the solubility at 48 h [4] of the same molecule?
Its solubility at 48 h is 1 µg/mL (≈ 2.27 µM).

And the “TPI % 10 µM” value ([5]; 10 µM compound, 1.5 mg/mL microtubular protein)?
Its value is 51%.

And the IC50 ([5]; in vitro tubulin polymerisation inhibition, read-out: TPI IC50)?
The IC50 was 7.6 µM.
